Results reported in publication PMC9557946, “Intermittent MEK inhibition for the treatment of metastatic uveal melanoma” (Frontiers in Oncology, 2022).
Several values for one entry are separate records, joined by “and”; a condition that tells them apart may be missing. Equal values may be shown once. Read-outs that look alike come from different tables or passages of the source.

Columns and labels:
[1] = in vivo
Procedure: Non-compartmental analyses were performed on the data for day 1, 2, 15 and 17 using Winnonlin software (Phoenix Winnonlin 8.3.1.5014, Certara L.P., Princeton, NJ). […] Data were summarized per dose level and per occasion. Dose-exposure relationships were explored by plotting dose versus the various parameters. Accumulation was investigated using the AUC assessed at various days.

[2] = Phase Ib trial of intermittent selumetinib: adverse events, DLT and MTD; type: in vivo
Text: This was a multi-center, open-label, phase Ib study conducted at Columbia University Irving Medical Center (New York, NY), University of Texas MD Anderson Cancer Center (Houston, TX), and Memorial Sloan Kettering Cancer Center (New York, NY). […] Exploratory objectives included pharmacodynamic (PD) assessment of target inhibition of the MEK pathway.
The MTD was estimated using the time to event continual reassessment method (TITE-CRM) with a target DLT rate of 0.25 ([17]). TITE-CRM was used as it allows use of partial information before a complete follow-up is achieved and allows for a longer toxicity evaluation window beyond the first cycle to account for late onset toxicities. As a result, trials can be conducted in a continuous fashion. […] Based on prior clinical data, the estimated MTD prior to conduct of the trial was DL2.
Descriptive statistics were used to report baseline characteristics of the study population. The observed rate and estimated rate of DLT were reported for each dose level along with the 90% probability interval. The number and percentage of patients with adverse events were summarized taking the highest grade and reported by grade for AEs that were at least possibly related to treatment. AEs with at prevalence of least 10% were reported separately. The overall response rate (ORR) was defined as a confirmed complete response (CR) or partial response (PR) according to RECIST 1.1 criteria ([18]) and reported by dose level. […] PFS was measured from date of enrollment until the date of progression or death, whichever occurred first. OS was defined as the time from the date of registration to the date of death by any cause.
Toxicity was graded using National Cancer Institute Common Terminology Criteria for Adverse Events (CTCAE v. 4.0). For recurrent adverse events (AEs), the highest reported grade per event per patient was assessed. The DLT observation period was 8 weeks from the initiation of treatment.

[3] = cited from earlier work
[4] = system: uveal melanoma; parameters: method as in PMID 22550165; conditions: ref [7], cited from earlier work
[5] = system: pERK; test: Pharmacodynamic analysis of serial tumor biopsies (immunoblot, densitometry); type: in vivo, human
Procedure: Serial tumor biopsies were collected from patients at baseline, on day 3, and between days 11 and 14. Flash-frozen specimens were lysed in RIPA lysis buffer. Equal amounts of protein were loaded on 4-20% PAGE gels (Invitrogen) and analyzed by immunoblotting using antibodies for pERK, ERK, cyclin D1 and α-tubulin (Cell Signaling). Signals from secondary antibodies were detected using ECL (Pierce) and autoradiography films. Densitometry analysis of each band was performed using Photoshop C6 and normalized to tubulin expression.

[6] = system: metastatic uveal melanoma; conditions: ref [10], cited from earlier work
[7] = related to study treatment, 29 patients, all dose levels

## Cn1cnc2c(F)c(Nc3ccc(Br)cc3Cl)c(C(=O)NOCCO)cc21 [selumetinib]
[1]; human, 100 mg
  AUC0-4h: 2903 ± 461 (6) h*ng/mL
  AUC0-8h: 4265 ± 628 (2) h*ng/mL
  CL/F: 20.9 ± 3.7 (2) L/h
  Cmax: 1453 ± 530 (6) ng/mL
  Tmax: 1.7 ± 0.5 (6) h
  t½: 2.4 ± 0.3 (2) h
[1]; human, 125 mg
  AUC0-4h: 4270 ± 1470 (56) h*ng/mL
  AUC0-8h: 6042 ± 2210 (29) h*ng/mL
  CL/F: 18.7 ± 8.1 (26) L/h
  Cmax: 2115 ± 798 (56) ng/mL
  intra-patient coefficient of variation for AUC0-8h: 11.3%
  intra-patient coefficient of variation for Cmax: 25.3%
  t½: 4.3 ± 5.7 (26) h
[1]; human, 150 mg
  AUC0-4h: 6073 ± 1540 (8) h*ng/mL
  AUC0-8h: 6683 ± 729 (4) h*ng/mL
  CL/F: 14.8 ± 7.6 (8) L/h
  Cmax: 3041 ± 1155 (8) ng/mL
  t½: 7.9 ± 9.1 (3) h
[1]
  accumulation: little to no accumulation
[2]; 150 mg BID vs 75 mg BID
  increase of intermittent MTD over continuous dose MTD: 100%
[2]; 29 patients, all dose levels
  patients requiring dose reduction for treatment-related toxicity: 21%
  patients who discontinued therapy due to toxicity: Five patients discontinued therapy due to toxicity
  patients with at least one treatment-related AE of any grade: All patients
  patients with grade 3 or higher treatment-related AE: 17%
[2]; All dose levels, 29 patients
  Observed DLTs: 5
[2]; DL3 150 mg BID, 90% probability interval 16%-44%
  estimated probability of toxicity at the MTD: 29%
[2]; Dose Level 2 (125 mg BID)
  DLT Information: • Grade 3 Hypertension • Grade 3 Abdominal pain
[2]; Dose Level 2 (125 mg BID), 20 patients
  Observed DLTs: 2/20 and 2
[2]; Dose Level 3 (150 mg BID)
  DLT Information: • Grade 3 Abdominal pain • Grade 3 AST elevation
[2]; Dose Level 3 (150 mg BID), 5 patients
  Observed DLTs: 2/5 and 2
[2]; Dose Level 4 (175 mg BID)
  DLT Information: • Grade 3 AST elevation
[2]; Dose Level 4 (175 mg BID), 1 patient
  Observed DLTs: 1/1 and 1
[2]; all dose levels
  most common grade 3 AE: abdominal pain
  treatment discontinuation associated with liver enzyme elevation: 2 n
  treatment discontinuation associated with retinopathy: 2 n
[2]; all from progression of disease
  patients who died within 30 days of treatment discontinuation: 4 patients
[2]; [7]
  Abdominal pain, All Grades: 12 (41%) patients (%)
  Abdominal pain, Grade 1: 5 (17) n(%)
  Abdominal pain, Grade 2: 4 (14) n(%)
  Abdominal pain, Grade 3: 3 (10) n(%)
  Abdominal pain, Grade 4: 0 n(%)
  Anemia, All Grades: 13 (45%) patients (%)
  Anemia, Grade 1: 11 (38) n(%)
  Anemia, Grade 2: 1 (3) n(%)
  Anemia, Grade 3: 0 n(%)
  Anemia, Grade 4: 1 (3) n(%)
  Constipation, All Grades: 10 (34%) patients (%)
  Constipation, Grade 1: 8 (28) n(%)
  Constipation, Grade 2: 2 (7) n(%)
  Constipation, Grade 3: 0 n(%)
  Constipation, Grade 4: 0 n(%)
  Decreased WBC, All Grades: 8 (28%) patients (%)
  Decreased WBC, Grade 1: 5 (17) n(%)
  Decreased WBC, Grade 2: 2 (7) n(%)
  Decreased WBC, Grade 3: 1 (3) n(%)
  Decreased WBC, Grade 4: 0 n(%)
  Diarrhea, All Grades: 16 (55%) patients (%)
  Diarrhea, Grade 1: 14 (48) n(%)
  Diarrhea, Grade 2: 2 (7) n(%)
  Diarrhea, Grade 3: 0 n(%)
  Diarrhea, Grade 4: 0 n(%)
  Fatigue, All Grades: 25 (86%) patients (%)
  Fatigue, Grade 1: 19 (66) n(%)
  Fatigue, Grade 2: 6 (21) n(%)
  Fatigue, Grade 3: 0 n(%)
  Fatigue, Grade 4: 0 n(%)
  Hypertension, All Grades: 14 (48%) patients (%)
  Hypertension, Grade 1: 3 (10) n(%)
  Hypertension, Grade 2: 9 (31) n(%)
  Hypertension, Grade 3: 2 (7) n(%)
  Hypertension, Grade 4: 0 n(%)
  Increased AST/ALT, All Grades: 12 (41%) patients (%)
  Increased AST/ALT, Grade 1: 10 (34) n(%)
  Increased AST/ALT, Grade 2: 0 n(%)
  Increased AST/ALT, Grade 3: 2 (7) n(%)
  Increased AST/ALT, Grade 4: 0 n(%)
  Nausea, All Grades: 17 (59%) patients (%)
  Nausea, Grade 1: 12 (41) n(%)
  Nausea, Grade 2: 5 (17) n(%)
  Nausea, Grade 3: 0 n(%)
  Nausea, Grade 4: 0 n(%)
  Pruritus, Grade 1: 10 (34) n(%)
  Pruritus, Grade 2: 0 n(%)
  Pruritus, Grade 3: 0 n(%)
  Pruritus, Grade 4: 0 n(%)
  Rash acneiform, All Grades: 19 (65%) patients (%)
  Rash acneiform, Grade 1: 14 (48) n(%)
  Rash acneiform, Grade 2: 5 (17) n(%)
  Rash acneiform, Grade 3: 0 n(%)
  Rash acneiform, Grade 4: 0 n(%)
  Retinopathy/Blurred Vision, All Grades: 8 (28%) patients (%)
  Retinopathy/Blurred Vision, Grade 1: 8 (28) n(%)
  Retinopathy/Blurred Vision, Grade 2: 0 n(%)
  Retinopathy/Blurred Vision, Grade 3: 0 n(%)
  Retinopathy/Blurred Vision, Grade 4: 0 n(%)
  Vomiting, All Grades: 8 (28%) patients (%)
  Vomiting, Grade 1: 5 (17) n(%)
  Vomiting, Grade 2: 3 (10) n(%)
  Vomiting, Grade 3: 0 n(%)
  Vomiting, Grade 4: 0 n(%)
[3]; continuous dosing schedule
  continuous dose MTD: 75 mg BID
[3]; prior knowledge, no reference given
  mean half-life: 5 to 8 h
[4]; selumetinib 75 mg BID vs temozolomide or DTIC
  median PFS: 16 weeks
[4]; selumetinib 75 mg BID
  patients achieving an objective radiographic response: 14%
[5]; day 3 of first cycle (on treatment) vs baseline, n=9
  mean reduction in pERK expression: 41.3%
[5]; day 11-14, off-treatment window
  mean increase in pERK expression from day 3: 69.3%
[5]; day 11-14 off treatment, of 9 patients
  cases with at least partial pERK recovery: 7 cases
[6]; SELPAC, selumetinib 75 mg BID
  median PFS: 3.4 months
[6]; SelPac, 77 patients
  ORR: 4%
  median OS: 10 months
